This is an account of results in PMC9186412, “Rational Framework for the Design of Trp- and Arg-Rich Peptide Antibiotics Against Multidrug-Resistant Bacteria” (Frontiers in Microbiology, 2022).

One assay deals with S. aureus. The assay is described as follows: microbe, parasite or virus in culture. Type of assay: cell-based. To be noted: Staphylococcus aureus, 18 h, MHB2, 18 h, 37°C. As to the method: (§1) Bacterial clinical isolates, used for initial screening and in previous studies ([Deslouches et al., 2013]; [Lin et al., 2018]), were anonymously provided by the clinical microbiology laboratory of the University of Pittsburgh medical Center. The panel used for secondary screening was from [CDC (2013)] (Supplementary Table 3), with resistance profiles data. Bacteria are stored in lock-secured –80°C freezer and typically retrieved by obtaining single colonies on agar plates prior for subsequent liquid broth cultures. Suspensions of test bacteria were prepared from log phase of growth by diluting overnight cultures at 1:100 with fresh cation-adjusted MHB (MHB2, Millipore Sigma, United States) and incubating for additional 3–4 h. Bacteria were spun at 3,000 × g for 10 min and the pellet resuspended in test condition media (Millipore Sigma, United States) to determine bacterial turbidity using a Den-1B densitometer (Grant Instruments, United States) at 0.5 McFarland (unit of bacterial density) corresponding to […].
(§2) To examine antibacterial activity, we used minor modifications of a standard growth inhibition assay endorsed by the Clinical and Laboratory Standards Institute (CLSI), as previously described ([Deslouches et al., 2013]). Bacteria were incubated with each of the indicated peptides in MHB2. The bacterial cells were kept in an incubator for 18 h at 37°C, which is linked to a robotic system that feeds a plate reader every hour with one of 8 × 96-well plates. This set-up allows the collection of growth kinetic data at A 570 (absorbance at 570 nm) to examine growth inhibition in real time (BioTek Instruments, United States). […] The assays are typically repeated a second time. If the MIC is different, a third experimental trial is performed to confirm the MIC. To assess bactericidal properties of the peptide, the assay was modified by using 15% fetal bovine serum (FBS, for a more physiologically relevant test condition) mixed with 25% MHB2 and 60% PBS. Bacterial cells (colony forming unit/mL or CFU/mL) were enumerated after incubating treated bacteria for 3 h and plating serially diluted samples on broth agar medium at 37°C overnight. Minimum bactericidal concentration (MBC) was determined as the peptide concentration at which complete bacterial killing was observed. […] Data were analyzed using GraphPad Prism software.

Another assay relates to E. Faecium. The assay is described as follows: microbe, parasite or virus in culture. It is filed as cell-based, Enterococcus Facium. To be noted: Enterococcus faecium, 18 h, MHB2, 18 h, 37°C. As for the experimental part: as §1, §2
The test system of assay [1] is CDC AR isolates. More on the design: key: S (green), susceptible; I (blue), intermediate; R (red), resistant. To be noted: data provided by the CDC, ref CDC, cited from earlier work. The text has this:
Supplement Table_3.XLSX, sheet "CDC AR isolates profiles" | column: G(-) strains

Assay [2] has as its system CDC AR isolates. More on the design: key: S (green), susceptible; I (blue), intermediate; R (red), resistant. To be noted: Staphylococcus aureus SA461, CDC AR isolate; data provided by the CDC; ref CDC; cited from earlier work.
In a further assay the test system is A. baumannii. The assay is described as follows: microbe, parasite or virus in culture. It is filed as cell-based, Acinetobacter baumannii. As to conditions: 18 h. As to the method: as §1, §2
For a further assay, the system named is E. coli. As to the kind of experiment: microbe, parasite or virus in culture. It is filed as cell-based, Escherichia coli. As for the experimental part:
as §1, §2

Another assay deals with Enterobacter spp. The assay is described as follows: microbe, parasite or virus in culture. It is filed as cell-based, Enterobacter spp (aerogenes, cloacae). To be noted: Enterobacter, 18 h, UPMC, MHB2, 18 h, 37°C. As to the method:
as §1, §2

Another assay has as its system K. pneumoniae. The assay is described as follows: microbe, parasite or virus in culture. To be noted: Klebsiella pneumoniae, 18 h, MHB2, 18 h, 37°C. Type of assay: cell-based, Klebsiella pneumoniae. As to the method:
as §1, §2

[3] abbreviates: Enterobacter cloacae E62, CDC AR isolate.
Setting [4] is: Enterobacter cloacae E544, CDC AR isolate.
Where [5] appears, read: Enterobacter cloacae E545, CDC AR isolate.
Where [6] appears, read: Enterobacter cloacae E546, CDC AR isolate.
The mark [7] stands for this setting: Escherichia coli EC541, CDC AR isolate.
[8] abbreviates: Escherichia coli EC543, CDC AR isolate.
The mark [9] stands for this setting: Escherichia coli EC544, CDC AR isolate.
Where [10] appears, read: Escherichia coli EC549, CDC AR isolate.
[11] abbreviates: Klebsiella pneumoniae KP542, CDC AR isolate.
Setting [12] is: Klebsiella pneumoniae KP548, CDC AR isolate.
Where [13] appears, read: Klebsiella pneumoniae KP550, CDC AR isolate.
The mark [14] stands for this setting: Klebsiella pneumoniae KP552, CDC AR isolate.

In brackets after ≈: the same amount, converted by molar mass. Where two headings read alike, the source gives them in different places. Where no end group is shown, it is not given here. Where only a bound is given, the exact number is not on record here.

In the case of `Cc1onc(-c2ccccc2)c1C(=O)N[C@@H]1C(=O)N2[C@@H]1SC(C)(C)[C@@H]2C(=O)O` [Oxacillin, reference compound], the MIC in the assay on S. aureus (strain SA12212, UPMC) is 8 µM (≈ 3.21 µg/mL); against S. aureus (strain SA18710, UPMC), 4 µM (≈ 1.61 µg/mL); in the assay on S. aureus (strain SA49775), 0.25 µM (≈ 0.1 µg/mL); in the assay on S. aureus (strain SA-US300), 4 µM (≈ 1.61 µg/mL); against E. Faecium (strain EF23614, UPMC) it was 0.25 µM (≈ 0.1 µg/mL); against E. Faecium (strain EF24670, UPMC), above 16 µM. Further, the MIC against E. Faecium (strain EF26215, UPMC) stood at 2 µM (≈ 0.803 µg/mL); in the assay on E. Faecium (strain EF26692, UPMC), 2 µM (≈ 0.803 µg/mL). In addition, the Antibiotic susceptibility profile result with CDC AR isolates [1] (Staphylococcus aureus SA462, CDC AR isolate) was “S”; with CDC AR isolates [1] (Staphylococcus aureus SA463, CDC AR isolate) it was “S”; in the assay on CDC AR isolates [1] (Staphylococcus aureus SA561, CDC AR isolate), “R”; in the assay on CDC AR isolates [2], “S”.

On to RVWRRVRRVWRRVRRVWRRV [E69], for which the MIC against A. baumannii is on record as 8 µM.

Turning to `Cc1nnc(SCC2=C(C(=O)O)N3C(=O)[C@@H](NC(=O)Cn4cnnn4)[C@H]3SC2)s1` [Cefazolin, reference compound], the MIC was 16 µM (≈ 7.27 µg/mL) in the assay on S. aureus (strain SA12212, UPMC); 16 µM (≈ 7.27 µg/mL) in the assay on S. aureus (strain SA18710, UPMC); 2 µM (≈ 0.909 µg/mL) in the assay with S. aureus (strain SA49775); 8 µM (≈ 3.64 µg/mL) in the assay on S. aureus (strain SA-US300); above 16 µM against E. Faecium (strain EF23614, UPMC); above 16 µM in the assay on E. Faecium (strain EF24670, UPMC). The MIC was 4 µM (≈ 1.82 µg/mL) against E. Faecium (strain EF26215, UPMC) and 4 µM (≈ 1.82 µg/mL) in the assay on E. Faecium (strain EF26692, UPMC). Also, the Antibiotic susceptibility profile result with CDC AR isolates [1] (setting [3]), with CDC AR isolates [1] (setting [4]), in the assay with CDC AR isolates [1] (setting [5]), in the assay on CDC AR isolates [1] (setting [6]), in the assay with CDC AR isolates [1] (setting [7]) and in the assay with CDC AR isolates [1] (setting [8]) was “R” each time. The Antibiotic susceptibility profile entry in the assay with CDC AR isolates [1] (setting [9]), with CDC AR isolates [1] (setting [10]), with CDC AR isolates [1] (setting [11]), in the assay with CDC AR isolates [1] (setting [12]), in the assay with CDC AR isolates [1] (setting [13]) and in the assay on CDC AR isolates [1] (setting [14]) was “R” throughout.

In turn, RRVWRRVRRVWRRVRRVVRRVW [E71] returned an MIC in the assay on A. baumannii of 8 µM.

In the assay on E. coli, RRVWRRVRRVWRRVRRWVRRVV [E72] showed an MIC of 0.5 µM.

As for `C[C@@H](O)[C@H]1C(=O)N2C(C(=O)O)=C(S[C@@H]3CN[C@H](C(=O)N(C)C)C3)[C@H](C)[C@H]12` [Meropenem, reference compound], the MIC in the assay on A. baumannii (Acinetobacter baumannii, strain AB-A2, UPMC clinical strain, MHB2, 18 h, 37°C, A570, confirmed by 2nd or 3rd trial) is 4 µM (≈ 1.53 µg/mL); against A. baumannii (Acinetobacter baumannii, strain AB-A3, UPMC, MHB2, 18 h, 37°C), above 16 µM; with A. baumannii (Acinetobacter baumannii, strain AB-F8, UPMC, MHB2, 18 h, 37°C), 8 µM (≈ 3.07 µg/mL); against A. baumannii (Acinetobacter baumannii, strain AB-F9, UPMC, MHB2, 18 h, 37°C) it was 8 µM (≈ 3.07 µg/mL); in the assay with E. coli (Escherichia coli, 18 h, strain Eco25922, MHB2, 18 h, 37°C) it was 0.5 µM (≈ 0.192 µg/mL); with E. coli (Escherichia coli, 18 h, strain YDC107, UPMC, MHB2, 18 h, 37°C) it was 1 µM (≈ 0.383 µg/mL). Moreover, the MIC was 8 µM (≈ 3.07 µg/mL) in the assay with E. coli (Escherichia coli, 18 h, strain YDC337, UPMC, MHB2, 18 h, 37°C); 8 µM (≈ 3.07 µg/mL) against E. coli (Escherichia coli, 18 h, strain YDC748, UPMC, MHB2, 18 h, 37°C); above 16 µM in the assay with Enterobacter spp (strain EA518 (aerogenes)); 16 µM (≈ 6.14 µg/mL) with Enterobacter spp (strain EA596 (aerogenes)); above 16 µM in the assay on Enterobacter spp (strain EC470 (cloacae)); 16 µM (≈ 6.14 µg/mL) in the assay with Enterobacter spp (strain EC560 (cloacae)). For the same molecule, the MIC against K. pneumoniae (strain KP43816) was found to be 1 µM (≈ 0.383 µg/mL); in the assay with K. pneumoniae (strain KPA5 (colistin-resistant), UPMC) it was 2 µM (≈ 0.767 µg/mL); with K. pneumoniae (strain KPB3, UPMC), 2 µM (≈ 0.767 µg/mL); with K. pneumoniae (strain KPC3, UPMC) it was 1 µM (≈ 0.383 µg/mL). The Antibiotic susceptibility profile entry in the assay on CDC AR isolates [1] (Acinetobacter baumannii AB273, CDC AR isolate) is “R”; with CDC AR isolates [1] (Acinetobacter baumannii AB274, CDC AR isolate), “R”; with CDC AR isolates [1] (Acinetobacter baumannii AB275, CDC AR isolate), “R”; in the assay on CDC AR isolates [1] (Acinetobacter baumannii AB276, CDC AR isolate) it was “R”; with CDC AR isolates [1] (setting [3]), “S”; with CDC AR isolates [1] (setting [4]) it was “R”. For the same molecule, the Antibiotic susceptibility profile entry in the assay with CDC AR isolates [1] (setting [5]) was “S”; in the assay with CDC AR isolates [1] (setting [6]) it was “I”; in the assay on CDC AR isolates [1] (setting [7]), “S”; in the assay on CDC AR isolates [1] (setting [8]) it was “I”; in the assay on CDC AR isolates [1] (setting [9]), “R”; with CDC AR isolates [1] (setting [10]), “R”. In addition, the Antibiotic susceptibility profile result was “I” in the assay on CDC AR isolates [1] (setting [11]); “R” with CDC AR isolates [1] (setting [12]); “R” in the assay with CDC AR isolates [1] (setting [13]); “R” in the assay with CDC AR isolates [1] (setting [14]); “R” with CDC AR isolates [1] (Pseudomonas aeruginosa PA229, CDC AR isolate); “R” with CDC AR isolates [1] (Pseudomonas aeruginosa PA230, CDC AR isolate). Also, the Antibiotic susceptibility profile entry is given as “R” in the assay on CDC AR isolates [1] (Pseudomonas aeruginosa PA231, CDC AR isolate); “I” in the assay with CDC AR isolates [1] (Pseudomonas aeruginosa PA232, CDC AR isolate); “R” with CDC AR isolates [1] (Pseudomonas aeruginosa PA239, CDC AR isolate).

As for RRWVRWVRRWVRWVRR [E80], the MIC with A. baumannii is given as 16 µM.
